This data set can be described thus: Solubility under substantially physiological conditions. Format: physicochemical. To be noted: pH 5 to 7.

For `NS(=O)(=O)c1ccc(S(=O)(=O)Nc2cccc3c(Cl)c[nH]c23)cc1` [N-(3-chloro-7-indolyl)-1,4-benzenedisulfonamide], the Solubility entry was “insoluble or slightly soluble”.

Values taken from patent publication US20060151899A1, “Process for producing drug ultramicroparticle and apparatus therefor” (priority 2004, published 2006).
